Kd and IC50 data for one compound are collected here from paper PMC11996967, “Targeting the Notch-Furin axis with 2-hydroxyoleic acid: a key mechanism in glioblastoma therapy” (Cellular Oncology, 2024).

The structures appear in SMILES notation.

One experiment deals with T1, furin (Homo sapiens, UniProt P09958).
T1 construct: commercial recombinant Human Furin
The experiment can be described thus: SPR (Biacore X100, furin amine-coupled on CM5, steady-state affinity); also inhibits recombinant furin in a fluorimetric assay. The format is binding.

In the next experiment the test system is SF-268. Briefly: cells. More on the design: glioma cell line sensitivity to 2OHOA, half maximal inhibitory concentration. To be noted: Homo sapiens, SF-268.
Another experiment concerns SF-295. The experiment can be described thus: cells. More on the design: glioma cell line sensitivity to 2OHOA, half maximal inhibitory concentration. The note with it: Homo sapiens, SF-295.
In another experiment the test system is U-87 MG. The experiment can be described thus: cells. More on the design: glioma cell line sensitivity to 2OHOA, half maximal inhibitory concentration. To be noted: Homo sapiens, U-87 MG.
The subject of a further experiment is U-118 MG. Briefly: cells. To be noted: Homo sapiens, U-118-MG. Set-up: glioma cell line sensitivity to 2OHOA, half maximal inhibitory concentration.
Another experiment deals with U-251 MG. Briefly: cells. Set-up: glioma cell line sensitivity to 2OHOA, half maximal inhibitory concentration. To be noted: Homo sapiens, U-251.

T1 sequence (P09958 108-794): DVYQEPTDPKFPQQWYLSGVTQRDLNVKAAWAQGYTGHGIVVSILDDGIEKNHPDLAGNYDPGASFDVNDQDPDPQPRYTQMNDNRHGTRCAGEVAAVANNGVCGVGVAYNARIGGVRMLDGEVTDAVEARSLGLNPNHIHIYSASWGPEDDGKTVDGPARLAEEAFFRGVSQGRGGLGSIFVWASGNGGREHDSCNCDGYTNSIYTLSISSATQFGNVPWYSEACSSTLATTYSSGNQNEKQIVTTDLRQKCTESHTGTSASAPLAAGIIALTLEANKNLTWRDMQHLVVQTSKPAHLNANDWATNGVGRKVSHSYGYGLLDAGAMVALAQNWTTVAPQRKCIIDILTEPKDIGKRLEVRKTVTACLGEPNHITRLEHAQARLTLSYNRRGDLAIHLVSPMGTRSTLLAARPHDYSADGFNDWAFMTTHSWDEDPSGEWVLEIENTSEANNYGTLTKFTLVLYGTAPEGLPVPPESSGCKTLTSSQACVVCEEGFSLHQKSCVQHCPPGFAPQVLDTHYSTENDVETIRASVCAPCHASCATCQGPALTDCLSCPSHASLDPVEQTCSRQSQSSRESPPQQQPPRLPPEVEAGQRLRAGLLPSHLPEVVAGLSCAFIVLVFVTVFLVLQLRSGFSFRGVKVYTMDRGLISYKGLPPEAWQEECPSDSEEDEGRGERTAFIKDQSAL

Consider `CCCCCCCC/C=C\CCCCCCC(O)C(=O)O` (stereo not drawn) [2OHOA, 2-hydroxy-9-cis-ocadecenoic acid], for which, on furin, the Kd is 19.5 µM. Besides, the IC50 with SF-268 is 240 µM; with SF-295, 300 µM; in the experiment on U-87 MG, 172 µM; in the experiment with U-118 MG, 180 µM; in the experiment with U-251 MG it was 427 µM.

The term Kd denotes a measure of binding affinity in units of concentration. For orientation: IC50 means the concentration at which inhibition is half-maximal.
